Data on one molecule can be found in patent US20220015361A1, “COMPOSITIONS COMPRISING HALAUXIFEN AND OTHER HERBICIDES AND METHODS THEREOF” (DOW AGROSCIENCES LLC, priority 2018, published 2022).

SMILES strings stand for the structures.

The experiment relates to ERISU (Conyza sumatrensis, Sumatran fleabane). Kind of experiment: greenhouse post-emergence foliar weed control, visual score 0-100 percent. The class given is in vivo. Particulars: 49 gai/ha. The text has this:
Results in Examples are greenhouse trial results.
Seeds or nutlets of the desired test plant species were planted in a soil matrix prepared by mixing a loam or sandy loam soil (e.g., 28.6 percent silt, 18.8 percent clay, and 52.6 percent sand, with a pH of about 5.8 and an organic matter content of about 1.8 percent) and calcareous grit in an 80 to 20 ratio. The soil matrix was contained in plastic pots with a volume of 1 quart and a surface area of 83.6 cm2. When required to ensure good germination and healthy plants, a fungicide treatment and/or other chemical or physical treatment was applied. The plants were grown for 8-22 days in a greenhouse with an approximate 14 h photoperiod which was maintained at about 29° C. during the day and 26° C. during the night. Nutrients (Peters Excel® 15-5-15 5-Ca 2-Mg and iron chelate) were applied in the irrigation solution as needed and water was added on a regular basis. Supplemental lighting was provided with overhead metal halide 1000-Watt lamps as necessary. The plants were employed for testing when they reached the first through fourth true leaf stage.
Treatments comprised of the acid or esters of halauxifen-methyl (methyl 4-amino-3-chloro-6-(4-chloro-2-fluoro-3-methoxyphenyl)picolinate), each formulated as an SC (suspension concentrate), and various herbicidal components alone and in combination. A form of the compound of Formula I were applied on an acid equivalent basis.
Treatment requirements were calculated based upon the rates being tested, the concentration of active ingredient or acid equivalent in the formulation, and a 12 mL application volume at a rate of 187 L/ha.
For treatments comprised of formulated and technical compounds, weighed amounts of the technical materials were placed individually in 25 mL glass vials and dissolved in a volume of 97:3 v/v acetone/DMSO to obtain 12× stock solutions, and measured amounts of the formulated compounds were placed individually in 25 mL glass vials and diluted in a volume of 1.5% (v/v) crop oil concentrate or water to obtain 12× stock solutions. […] As required, additional water and/or 97:3 v/v acetone/DMSO was added to individual application solutions so that the final acetone and DMSO concentrations of the application solutions being compared were 8.1% and 0.25%, respectively.
All stock solutions and applications solutions were visually inspected for compound compatibility prior to application. Spray solutions were applied to the plant material with an overhead Mandel track sprayer equipped with an 8002E nozzle calibrated to deliver 187 L/ha over an application area of 0.503 m2 at a spray height of 18 to 20 inches (46 to 50 cm) above average plant canopy height. Control plants were sprayed in the same manner with the solvent blank.
The treated plants and control plants were placed in a greenhouse as described above and watered by sub-irrigation to prevent wash-off of the test compounds. […]
Table 1 illustrates weed control for foliar applications of compositions comprising halauxifen-methyl+2,4-D-dimethylammonium (2,4-D-DMA)+saflufenacil on various broadleaf weeds. […] The compositions disclosed herein can be used in burndown and fallow crop applications or in herbicide tolerant crops. These compositions can be used for broad-spectrum control of broadleaf weeds including, but not limited to, ALS, auxinic, HPPD, PPO, saflufenacil and glyphosate resistant broadleaf weeds. The compositions disclosed herein can have utility in AAD1 and AAD12 monocot and dicot crops whereby there is crop tolerance to all 3 modes of action, providing growers with a solution to control susceptible and resistant broadleaf weeds, as well as to delay the development of resistance by the use of 3 modes of action product. The compositions disclosed herein can be used in non-crop and R&P/IVM situations, post directed in perennial crops, and potentially across many crops where there is tolerance to all 3 modes of action.

Consider `CC(C)N(C)S(=O)(=O)NC(=O)c1cc(-n2c(=O)cc(C(F)(F)F)n(C)c2=O)c(F)cc1Cl` [saflufenacil, 2-chloro-5-[3,6-dihydro-3-methyl-2,6-dioxo-4-(trifluoromethyl)-1(2H)-pyrimidinyl]-4-fluoro-N-[[methyl(1-methylethyl)amino]sulfonyl]benzamide], for which the “Chem 2 Actual Mean % Weed Control” value reads like this: (Trial 1, ERISU, 17DAA) 52.50%; (Trial 1, ERISU, 28DAA) 66.25%; (Trial 1, ERISU, 43DAA) 77.50%; (Trial 2, ERISU, 17DAA) 66.25%; (Trial 2, ERISU, 28DAA) 97.50%; (Trial 2, ERISU, 43DAA) 98.25%.
